Laboratory results as given in US4731451A, “N-((2-oxo-3(2H)benzothiazolyl)methyl)-2-chloroacetanilides” (Monsanto Company, priority 1980, dated 1988).

How the values were obtained:
Type in all cases: in vivo
[1] = test system: Velvetleaf; assay: Pre-emergent herbicidal activity (Table II); details: 2-3 weeks; note: ranges in brackets are in %
Method in brief: (§1)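 Treated soil cover layer (known amount of active ingredient, solvent or wettable powder) applied over seeds/propagules in pans. Greenhouse bench, watered from below; injury rated at ~2-3 weeks.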

[2] = test system: Johnsongrass; assay: Pre-emergent herbicidal activity (Table II); details: 2-3 weeks; note: ranges in brackets are in %
Method in brief: as §1

[3] = test system: Cocklebur; assay: Pre-emergent herbicidal activity (Table II); details: 2-3 weeks; note: ranges in brackets are in %
Method in brief: as §1

[4] = test system: Smartweed; assay: Pre-emergent herbicidal activity (Table II); details: 2-3 weeks; note: ranges in brackets are in %
Method in brief: as §1

[5] = test system: Quackgrass; assay: Pre-emergent herbicidal activity (Table II); details: 2-3 weeks; note: ranges in brackets are in %
Method in brief: as §1

[6] = test system: Lambsquarters; assay: Pre-emergent herbicidal activity (Table II); details: 2-3 weeks; note: ranges in brackets are in %
Method in brief: as §1

[7] = test system: Morningglory; assay: Pre-emergent herbicidal activity (Table II); details: 2-3 weeks; note: ranges in brackets are in %
Method in brief: as §1

[8] = test system: Barnyardgrass; assay: Pre-emergent herbicidal activity (Table II); details: 2-3 weeks; note: ranges in brackets are in %
Method in brief: as §1

[9] = test system: Canada Thistle; assay: Pre-emergent herbicidal activity (Table II); details: 2-3 weeks; note: ranges in brackets are in %
Method in brief: as §1

[10] = test system: Yellow Nutsedge; assay: Pre-emergent herbicidal activity (Table II); details: 2-3 weeks; note: ranges in brackets are in %
Method in brief: as §1

[11] = test system: Downy Brome; assay: Pre-emergent herbicidal activity (Table II); details: 2-3 weeks; note: ranges in brackets are in %
Method in brief: as §1

[12] = test system: major Asian rice weeds; assay: Selective control of weeds in transplanted rice (summary of Table VI)
Excerpt: (§2) In Table VI, data is presented showing the effect of said compound on the major Asian rice weeds Echinochloa crusgalli (EC), Monochoria vaginalis (MV), Cyperus serotinus (CS), Eleocharis kuroguwai (EK) and Sagittaria trifolia (ST) in transplanted rice at rates within the range of 0.25-2.0 lb/A (0.28-2.24 kg/ha); observations were made 18 days after treatment.

[13] = test system: Echinochloa crusgalli; assay: Percent inhibition of rice weeds in transplanted rice (Table VI); details: Echinochloa crus-galli, 432 h, 18 days after treatment
Excerpt: as §2

[14] = test system: Monochoria vaginalis; assay: as above; details: Pontederia vaginalis, 432 h, 18 days after treatment
Excerpt: as §2

[15] = test system: Cyperus serotinus; assay: as above; details: 432 h, 18 days after treatment
Excerpt: as §2

[16] = test system: Eleocharis kuroguwai; assay: as above; details: 432 h, 18 days after treatment
Excerpt: as §2

[17] = test system: Sagittaria trifolia; assay: as above; details: 432 h, 18 days after treatment
Excerpt: as §2

[18] = test system: Rice; assay: Percent inhibition in transplanted rice (Table VI)
Excerpt: as §2

[19] = test system: Rice; assay: Pre-emergent herbicidal activity (Table III); note: ranges in brackets are in %
Method in brief: (§3)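 Treated cover soil over seeded pans; sub-irrigated greenhouse culture; fixed-scale injury rating after ~2-3 weeks.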

[20] = test system: Wild Buckwheat; assay: Pre-emergent herbicidal activity (Table III); note: ranges in brackets are in %
Method in brief: as §3

[21] = test system: Soybean; assay: Pre-emergent herbicidal activity (Table III); note: ranges in brackets are in %
Method in brief: as §3

[22] = test system: Morningglory; assay: Pre-emergent herbicidal activity (Table III); note: ranges in brackets are in %
Method in brief: as §3

[23] = test system: Barnyardgrass; assay: Pre-emergent herbicidal activity (Table III); note: ranges in brackets are in %
Method in brief: as §3

[24] = test system: Crabgrass; assay: Pre-emergent herbicidal activity (Table III); note: ranges in brackets are in %
Method in brief: as §3

[25] = test system: Downy Brome; assay: Pre-emergent herbicidal activity (Table III); note: ranges in brackets are in %
Method in brief: as §3

CC1=C(N(Cn2c(=O)sc3ccccc32)C(=O)CCl)C(C)CCC1 (stereo not shown) [Example 1, N-(2,6-dimethyl-1-cyclohexen-1-yl)-N-[(2-oxo-3(2H)-benzothiazolyl)methyl]-2-chloroacetamide]
Herbicidal rating ([1]; 5.6 kg/ha): 0 (0-24) | Herbicidal rating ([1]; 11.0 kg/ha): 0 (0-24) | Herbicidal rating ([2]; 5.6 kg/ha): 0 (0-24) | Herbicidal rating ([2]; 11.0 kg/ha): 3 (75-100) | Herbicidal rating ([3]; 5.6 kg/ha): 1 (25-49) | Herbicidal rating ([3]; 11.0 kg/ha): 0 (0-24) | Herbicidal rating ([4]; 5.6 kg/ha): 1 (25-49) | Herbicidal rating ([4]; 11.0 kg/ha): 3 (75-100) | Herbicidal rating ([5]; 5.6 kg/ha): 2 (50-74) | Herbicidal rating ([5]; 11.0 kg/ha): 2 (50-74) | Herbicidal rating ([6]; 5.6 kg/ha): 1 (25-49) | Herbicidal rating ([6]; 11.0 kg/ha): 0 (0-24) | Herbicidal rating ([7]; 5.6 kg/ha): 2 (50-74) | Herbicidal rating ([7]; 11.0 kg/ha): 2 (50-74) | Herbicidal rating ([8]; 5.6 kg/ha): 3 (75-100) | Herbicidal rating ([8]; 11.0 kg/ha): 3 (75-100) | Herbicidal rating ([9]; 5.6 kg/ha): 0 (0-24) | Herbicidal rating ([9]; 11.0 kg/ha): 0 (0-24) | Herbicidal rating ([10]; 5.6 kg/ha): 0 (0-24) | Herbicidal rating ([10]; 11.0 kg/ha): 2 (50-74) | Herbicidal rating ([11]; 5.6 kg/ha): 2 (50-74) | Herbicidal rating ([11]; 11.0 kg/ha): 2 (50-74) | efficacy as a rice herbicide [12]: particularly efficacious as a rice herbicide | selective weed control ([12]; rates as low as 0.28 kg/ha): selectively controlled all weeds in the test, except Sagittaria trifolia | inhibition at 280 g/ha ([13]; 0.28 kg/ha): 100% | inhibition at 560 g/ha ([13]; 0.56 kg/ha): 100% | inhibition at 1120 g/ha ([13]; 1.12 kg/ha): 100% | inhibition at 2240 g/ha ([13]; 2.24 kg/ha): 100% | inhibition at 280 g/ha ([14]; 0.28 kg/ha): 100% | inhibition at 560 g/ha ([14]; 0.56 kg/ha): 100% | inhibition at 1120 g/ha ([14]; 1.12 kg/ha): 100% | inhibition at 2240 g/ha ([14]; 2.24 kg/ha): 100% | inhibition at 280 g/ha ([15]; 0.28 kg/ha): 80% | inhibition at 560 g/ha ([15]; 0.56 kg/ha): 90% | inhibition at 1120 g/ha ([15]; 1.12 kg/ha): 100% | inhibition at 2240 g/ha ([15]; 2.24 kg/ha): 100% | inhibition at 280 g/ha ([16]; 0.28 kg/ha): 100% | inhibition at 560 g/ha ([16]; 0.56 kg/ha): 100% | inhibition at 1120 g/ha ([16]; 1.12 kg/ha): 100% | inhibition at 2240 g/ha ([16]; 2.24 kg/ha): 100% | inhibition at 280 g/ha ([17]; 0.28 kg/ha): 0% | inhibition at 560 g/ha ([17]; 0.56 kg/ha): 5% | inhibition at 1120 g/ha ([17]; 1.12 kg/ha): 5% | inhibition at 2240 g/ha ([17]; 2.24 kg/ha): 5% | inhibition at 280 g/ha ([18]; Oryza sativa, 432 h, transplanted rice, 0.28 kg/ha, 18 days after treatment): 0% | inhibition at 560 g/ha ([18]; Oryza sativa, 432 h, transplanted rice, 0.56 kg/ha, 18 days after treatment): 0% | inhibition at 1120 g/ha ([18]; Oryza sativa, 432 h, transplanted rice, 1.12 kg/ha, 18 days after treatment): 0% | inhibition at 2240 g/ha ([18]; Oryza sativa, 432 h, transplanted rice, 2.24 kg/ha, 18 days after treatment): 10% | rice injury (rice safety) ([18]; at 2.24 kg/ha or more): ≤ 15% | Herbicidal rating ([19]; 0.0056 kg/ha): 1 (25-49) | Herbicidal rating ([19]; 0.0112 kg/ha): 1 (25-49) | Herbicidal rating ([19]; 0.056 kg/ha): 0 (0-24) | Herbicidal rating ([19]; 0.28 kg/ha): 2 (50-74) | Herbicidal rating ([19]; 1.12 kg/ha): 2 (50-74) | Herbicidal rating ([19]; 5.6 kg/ha): 2 (50-74) | Herbicidal rating ([20]; 0.0056 kg/ha): 0 (0-24) | Herbicidal rating ([20]; 0.0112 kg/ha): 0 (0-24) | Herbicidal rating ([20]; 0.056 kg/ha): 0 (0-24) | Herbicidal rating ([20]; 0.28 kg/ha): 0 (0-24) | Herbicidal rating ([20]; 1.12 kg/ha): 0 (0-24) | Herbicidal rating ([20]; 5.6 kg/ha): 0 (0-24) | Herbicidal rating ([21]; 0.0056 kg/ha): 0 (0-24) | Herbicidal rating ([21]; 0.0112 kg/ha): 0 (0-24) | Herbicidal rating ([21]; 0.056 kg/ha): 1 (25-49) | Herbicidal rating ([21]; 0.28 kg/ha): 0 (0-24) | Herbicidal rating ([21]; 1.12 kg/ha): 0 (0-24) | Herbicidal rating ([21]; 5.6 kg/ha): 1 (25-49) | Herbicidal rating ([22]; 0.0056 kg/ha): 3 (75-100) | Herbicidal rating ([22]; 0.0112 kg/ha): 3 (75-100) | Herbicidal rating ([22]; 0.056 kg/ha): 1 (25-49) | Herbicidal rating ([22]; 0.28 kg/ha): 0 (0-24) | Herbicidal rating ([22]; 1.12 kg/ha): 0 (0-24) | Herbicidal rating ([22]; 5.6 kg/ha): 0 (0-24) | Herbicidal rating ([23]; 0.0056 kg/ha): 3 (75-100) | Herbicidal rating ([23]; 0.0112 kg/ha): 3 (75-100) | Herbicidal rating ([23]; 0.056 kg/ha): 3 (75-100) | Herbicidal rating ([23]; 0.28 kg/ha): 3 (75-100) | Herbicidal rating ([23]; 1.12 kg/ha): 3 (75-100) | Herbicidal rating ([23]; 5.6 kg/ha): 3 (75-100) | Herbicidal rating ([24]; 0.0056 kg/ha): 3 (75-100) | Herbicidal rating ([24]; 0.0112 kg/ha): 2 (50-74) | Herbicidal rating ([24]; 0.056 kg/ha): 3 (75-100) | Herbicidal rating ([24]; 0.28 kg/ha): 3 (75-100) | Herbicidal rating ([24]; 1.12 kg/ha): 3 (75-100) | Herbicidal rating ([24]; 5.6 kg/ha): 3 (75-100) | Herbicidal rating ([25]; 0.0056 kg/ha): 0 (0-24) | Herbicidal rating ([25]; 0.0112 kg/ha): 1 (25-49) | Herbicidal rating ([25]; 0.056 kg/ha): 0 (0-24) | Herbicidal rating ([25]; 0.28 kg/ha): 0 (0-24) | Herbicidal rating ([25]; 1.12 kg/ha): 3 (75-100) | Herbicidal rating ([25]; 5.6 kg/ha): 0 (0-24)
